Laboratory results published in patent US11299489B1, “Thiazole compounds as protein kinase inhibitors” (NATIONAL HEALTH RESEARCH INSTITUTES, priority 2020, dated 2022).
pIC50: −log10 of the molar value. Counter-ions that a name gives are not always drawn.

Assays:
MV4:11 cells = assay: MTS cell viability assay, MV4:11; format: cell-based; conditions: Homo sapiens, MV4-11, 72 h
Text: (§1) MV4:11, BaF3 and HEK293T cell lines were obtained from American Type Culture Collection (ATCC, Manassas, Va., USA). MOLM-13 cell line was purchased from the Deutsche Sammlung von Microorganismen and Zellkulturen GmbH (DSMZ, Braunschweig, Germany). The GIST-T1 cell line was obtained from COSMO BIO CO., LTD (Tokyo, Japan). The GIST-T1, MOLM-13, MV4:11, BaF3, BaF3/FLT3-D835Y, BaF3/FLT3-ITD-F691L and BaF3/FLT3-ITD-D835Y cells were maintained in RPMI 1640 medium supplemented with 10% fetal bovine serum (FBS), 10 U/mL penicillin, and 100 μg/mL streptomycin at 37° C. and 5% CO2. The kasumin-1 cells were cultured in RPMI 1640 medium supplemented with 20% fetal bovine serum (FBS), 1 mM Hepes, 1 mM sodium pyruvate, 10 U/ml penicillin, and 100 μg/ml streptomycin. The HEK293T and FLT3-transfected HEK293T cells were cultured in DMEM (Invitrogen, USA) medium with 10% FBS fetal bovine serum. […]
(§2) Cell viability assay was performed by seeding 1×10^4 cells (MOLM-13, MV4:11, BaF3, BaF3/FLT3-D835Y, BaF3/FLT3-ITD-D835Y and BaF3/FLT3-ITD-F691L) per well in a 96-well culture plate. […] The viable cells were quantitated using the CellTiter 96 AQueous MTS method (Promega, Madison, Wis., USA) according to the manufacturer's recommended protocol. The results were determined by measuring the absorbance at 490 nm using a plate reader (Victor2; PerkinElmer, Shelton, Conn., USA). […]

GIST882 cells = assay: Cell proliferation assay (methylene blue), GIST882; format: cell-based; conditions: Homo sapiens, GIST882, 144 h
Method: (§3) GIST882, GIST48 and GIST430 cells were all cultured in incubators maintained at 37° C. and 5% CO2. GIST882 was cultured in RPMI-1640 supplemented with 20% fetal bovine serum (FBS). GIST48 was cultured with F10 supplemented with 20% FBS, 0.5% Mito, serum extender (BD Bioscience, 355006) and 1% pituitary extract bovine (BD Bioscience 354123). GIST430 was cultured in IMDM supplemented with 20% FBS. GIST882, GIST430 and GIST48 cells were provided by Dr. Jonathan A. Fletcher (Harvard Medical School, US).
(§4) GIST cells (4×10^4) were treated with different dosage of compounds. The treated GIST882 cells were incubated for 144 h and GIST48 and GIST430 cells were incubated for 120 h at 37° C. in 5% CO2. Cell proliferation was determined by incubating the cells with methylene blue (Clontech, CA, US) for 1 hour. The absorbance was measured at 450 nm using SpectraMax M5 microplate reader (Molecular Devices, US).

[1] = test system: BaF3 cells (IL3 dependent pro-B cell line); assay: MTS cell viability assay, BaF3 + IL3; format: cell-based, murine; conditions: Mus musculus; BaF3 + IL3, 72 h
Text: as §1, §2

GIST430 cells = assay: Cell proliferation assay (methylene blue), GIST430; format: cell-based; conditions: Homo sapiens, GIST430, 120 h
Method: as §3, §4

MOLM-13 cells = assay: MTS cell viability assay, MOLM-13; format: cell-based; conditions: Homo sapiens, MOLM-13, 72 h
Text: as §1, §2

[2] = target: T1, GST-FLT3-KD WT (FLT3 kinase catalytic domain) (Homo sapiens, UniProt P36888); assay: FLT3 WT Kinase-Glo assay; format: biochemical; conditions: 1 μM ATP, 30° C., 4 h; read-out: IC50, inhibiting FLT3 activity
T1 construct: containing the FLT3 kinase catalytic domain (residues Y567-5993); GST; made in house; host or cells: Sf9 insect cells (baculovirus, pBac-PAK8-GST-FLT3-KD plasmid)
T1 sequence (P36888 567-993 limits assumed): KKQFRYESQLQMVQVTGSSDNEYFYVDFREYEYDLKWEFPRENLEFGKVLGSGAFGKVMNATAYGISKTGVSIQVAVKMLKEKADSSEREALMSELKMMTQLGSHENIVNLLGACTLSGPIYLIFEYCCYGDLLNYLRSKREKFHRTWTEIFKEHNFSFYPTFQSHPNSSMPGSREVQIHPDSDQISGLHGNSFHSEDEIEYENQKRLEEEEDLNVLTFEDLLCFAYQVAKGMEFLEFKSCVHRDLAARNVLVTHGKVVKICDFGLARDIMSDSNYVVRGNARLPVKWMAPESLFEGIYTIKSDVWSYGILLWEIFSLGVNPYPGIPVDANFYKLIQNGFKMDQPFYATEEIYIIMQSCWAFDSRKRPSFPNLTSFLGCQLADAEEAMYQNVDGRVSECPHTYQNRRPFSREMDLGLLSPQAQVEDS
Method: A study was carried out as follows to test compound 1 HCl salt prepared according to EXAMPLE 1 in inhibiting FLT3 activity.
GST-FLT3-KD^WT containing the FLT3 kinase catalytic domain (residues Y567-5993) was expressed in Sf9 insect cells transfected the baculovirus containing pBac-PAK8-GST-FLT3-KD plasmid. An FLT3^WT Kinase-Glo assay was carried out in 96-well plates at 30° C. for 4 h to test compound in a final volume of 50 μL including the following components: 75 ng GST-FLT3-KD^WT proteins, 25 mM HEPES, pH 7.4, 4 mM MnCl2, 10 mM MgCl2, 2 mM DTT, 0.02% Triton X-100, 0.1 mg/mL bovine serum albumin, 25 μM Her2 peptide substrate, 0.5 mM Na3VO4, and 1 μM ATP. Following incubation, 50 μL Kinase-Glo Plus Reagent (Promega, Madison, Wis., USA) was added to each well and the mixture was incubated at 25° C. for 20 min. A 70-μL aliquot of each reaction mixture was transferred to a black microtiter plate and the luminescence was measured on Wallac Vector 1420 multilabel counter (PerkinElmer, Shelton, Conn., USA).

GIST48 cells = assay: Cell proliferation assay (methylene blue), GIST48; format: cell-based; conditions: Homo sapiens, GIST48, 120 h
Method: as §3, §4

[3] = test system: BaF3/FLT3-ITD-F691L cells; assay: MTS cell viability assay, BaF3/FLT3-ITD-F691L; format: cell-based, murine; conditions: Mus musculus, 72 h
Text: as §1, §2

BaF3/FLT3-D835Y cells = assay: MTS cell viability assay, BaF3/FLT3-D835Y; format: cell-based, murine; conditions: Mus musculus, 72 h
Text: as §1, §2

Kasumi-1 xenografts = assay: In vivo efficacy study on Kasumi-1 xenografts; set-up: species or system SCID male mice; conditions: days 1-5 and 8-12; for Day 18 Tumor Size: control 880
[4] = test system: BaF3/FLT3-ITD-D835Y cells; assay: MTS cell viability assay, BaF3/FLT3-ITD-D835Y; format: cell-based, murine; conditions: Mus musculus, 72 h
Text: as §1, §2

[5] = target: T2, human c-KIT (residues T544-V976) (Homo sapiens, UniProt P10721); assay: c-Kit ADP Kinase-Glo assay; format: biochemical; conditions: 20 μM ATP, 30° C., 150 mins; read-out: IC50, inhibiting c-Kit activity
T2 construct: human c-KIT (residues T544-V976); His (N); made in house; host or cells: baculovirus-insect cell expression system (printed '519', evidently Sf9)
Method: A study was carried out as follows to test compound 1 HCl salt prepared according to EXAMPLE 1 in inhibiting c-Kit activity.
The N-terminal His-tagged human c-KIT (residues T544-V976) recombinant proteins, expressed in 519 baculovirus-insect cell expression systems, were purified for c-KIT ADP Kinase-Glo assay. A c-Kit-ADP Kinase-Glo assay was carried out in 96-well plates at 30° C. for 150 mins with a final volume of 10 μL, including 40 mM Tris pH 7.4, 20 mM MgCl2, 2 mM MnCl2, 2 mM DTT, 0.01% BSA, 20 μM ATP, 20 μM poly(Glu,Tyr) 4:1 peptide, 0.1 mM Na3VO4, 250 ng of recombinant c-Kit proteins, and a tested compound at the indicated concentration. The reactions were stopped by the addition of 5 μL ADP-Glo™ Reagent (Promega, Madison, Wis., USA) at 25° C. with 40 min incubation, followed by 10 μL of kinase detection reagent for a further 30 min. Finally, a […] aliquot of each reaction mixture was transferred to a black microtiter plate and the luminescence was measured on Wallac Vector 1420 multilabel counter (Perkin-Elmer, Shelton, Conn., USA).

GIST-T1 cells = assay: MTS cell viability assay, GIST-T1; format: cell-based; conditions: Homo sapiens, GISTT1, 72 h
Text: as §1, §2

T2 sequence (P10721 544-976): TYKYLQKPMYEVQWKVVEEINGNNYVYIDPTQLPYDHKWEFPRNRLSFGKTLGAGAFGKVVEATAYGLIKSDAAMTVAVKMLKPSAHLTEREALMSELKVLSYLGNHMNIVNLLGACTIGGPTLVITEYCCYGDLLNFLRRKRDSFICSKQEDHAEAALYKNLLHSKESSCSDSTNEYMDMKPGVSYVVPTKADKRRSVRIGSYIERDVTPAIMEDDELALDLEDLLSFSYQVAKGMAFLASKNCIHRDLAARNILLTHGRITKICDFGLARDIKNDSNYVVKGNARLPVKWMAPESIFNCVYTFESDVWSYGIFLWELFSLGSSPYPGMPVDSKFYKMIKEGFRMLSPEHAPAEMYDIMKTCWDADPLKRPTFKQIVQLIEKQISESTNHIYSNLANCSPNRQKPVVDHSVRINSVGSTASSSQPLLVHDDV

Work on `Cc1nc(Nc2ncc(-c3ccncc3)s2)cc(N2CCNCC2)n1` [Compound 1 HCl salt, 2-Methyl-6-(piperazin-1-yl)-N-[5-(pyridine-4-yl)-1,3-thiazol-2-yl]pyrimidin-4-amine dihydrochloride] yielded a GI50 (MV4:11 cells) of 1.3 nM, a GI50 (GIST882 cells) of 8 nM and a GI50 [1] of 2580 nM. The GI50 (GIST430 cells) was 33 nM, the GI50 (MOLM-13 cells) was 2.9 nM and the pIC50 [2] was greater than 7.00. The GI50 (GIST48 cells) was 20 nM, the GI50 [3] was 95 nM and the GI50 (BaF3/FLT3-D835Y cells) was 14 nM. The “Body Weight Loss” value (Kasumi-1 xenografts; 10 mg/kg oral) was “No”, the “Mortality (n = 6)” value (Kasumi-1 xenografts; 10 mg/kg oral) was 0/6 and the “Day 18 Tumor Size” value (Kasumi-1 xenografts; 10 mg/kg oral) was 700 mm^3. For the same compound, the “Body Weight Loss” value (Kasumi-1 xenografts; 50 mg/kg oral) was “No”, the “Mortality (n = 6)” value (Kasumi-1 xenografts; 50 mg/kg oral) was 0/6 and the “Day 18 Tumor Size” value (Kasumi-1 xenografts; 50 mg/kg oral) was 80 mm^3. For the same compound, the GI50 [4] was 53 nM, the pIC50 [5] was greater than 7.00 and the GI50 (GIST-T1 cells) was 2.3 nM.
